Laboratory results: patent US20250002471A1 (Gilead Sciences, Inc., priority 2020, published 2025)
Where two headings read alike, the source gives them in different places.

Legend:
[1] = target: T1, TLR7 (Homo sapiens, UniProt Q9NYK1); test: Human PBMC cell-based assay, TLR7 agonist GS-986 stimulation, cytokine (IL-6 and IFNα) readout; settings: human PBMCs, read-out: TLR-7 EC50
T1 construct: lymphocytes, monocytes and dendritic cells that express TLR7, TLR8 and TLR9; endogenous in cells; host or cells: human PBMCs from healthy donors
T1 sequence (Q9NYK1 27-1049): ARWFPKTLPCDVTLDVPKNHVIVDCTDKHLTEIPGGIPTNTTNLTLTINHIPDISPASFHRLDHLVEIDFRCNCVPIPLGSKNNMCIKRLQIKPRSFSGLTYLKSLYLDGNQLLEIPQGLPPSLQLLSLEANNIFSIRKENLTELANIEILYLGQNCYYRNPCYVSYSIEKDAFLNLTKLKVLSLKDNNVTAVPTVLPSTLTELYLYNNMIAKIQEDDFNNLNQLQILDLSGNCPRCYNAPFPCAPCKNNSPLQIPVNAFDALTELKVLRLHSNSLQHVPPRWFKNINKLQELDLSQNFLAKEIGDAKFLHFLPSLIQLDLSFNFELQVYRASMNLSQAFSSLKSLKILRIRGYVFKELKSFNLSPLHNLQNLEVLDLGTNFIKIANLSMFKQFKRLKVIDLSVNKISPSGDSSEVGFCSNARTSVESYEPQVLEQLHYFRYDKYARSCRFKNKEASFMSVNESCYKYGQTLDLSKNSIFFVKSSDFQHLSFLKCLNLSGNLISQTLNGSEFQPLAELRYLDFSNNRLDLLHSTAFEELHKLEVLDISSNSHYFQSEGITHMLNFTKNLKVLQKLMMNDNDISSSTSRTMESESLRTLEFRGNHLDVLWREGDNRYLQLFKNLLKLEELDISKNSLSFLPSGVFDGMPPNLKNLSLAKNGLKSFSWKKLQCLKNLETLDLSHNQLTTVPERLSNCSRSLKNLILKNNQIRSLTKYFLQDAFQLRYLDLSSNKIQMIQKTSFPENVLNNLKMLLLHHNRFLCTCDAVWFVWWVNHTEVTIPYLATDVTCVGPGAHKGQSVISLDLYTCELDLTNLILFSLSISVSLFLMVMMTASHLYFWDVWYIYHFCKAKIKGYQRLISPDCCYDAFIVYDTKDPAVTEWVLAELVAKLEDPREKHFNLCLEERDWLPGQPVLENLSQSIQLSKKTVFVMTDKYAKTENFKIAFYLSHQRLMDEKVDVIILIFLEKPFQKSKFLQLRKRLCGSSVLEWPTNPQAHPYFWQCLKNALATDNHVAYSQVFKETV
Method in brief: (§1)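 Readout is IL-6 and IFNα in supernatants, quantified by electrochemiluminescence, with EC50 from a sigmoidal fit of cytokine versus concentration. Healthy-donor human PBMCs, 100,000 per well, got antagonist for 1 h at 37 °C, then 6 h agonist exposure: TLR7 via GS-986 at 400 nM final, TLR9 via ODN-2216 at 3 μM final.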

[2] = target: T2, TLR8 (Homo sapiens, UniProt Q9NR97); test: TLR8 human PBMC cell-based assay, TLR8 agonist Compound A stimulation, cytokine (TNFa and IL12p40) readout; settings: human PBMCs, Compound A 800 nM, 6 hours; Table 26; read-out: TLR-8 EC50
T2 construct: lymphocytes, monocytes and dendritic cells that express TLR7, TLR8 and TLR9; endogenous in cells; host or cells: human PBMCs from healthy donors
T2 sequence (Q9NR97 27-1041): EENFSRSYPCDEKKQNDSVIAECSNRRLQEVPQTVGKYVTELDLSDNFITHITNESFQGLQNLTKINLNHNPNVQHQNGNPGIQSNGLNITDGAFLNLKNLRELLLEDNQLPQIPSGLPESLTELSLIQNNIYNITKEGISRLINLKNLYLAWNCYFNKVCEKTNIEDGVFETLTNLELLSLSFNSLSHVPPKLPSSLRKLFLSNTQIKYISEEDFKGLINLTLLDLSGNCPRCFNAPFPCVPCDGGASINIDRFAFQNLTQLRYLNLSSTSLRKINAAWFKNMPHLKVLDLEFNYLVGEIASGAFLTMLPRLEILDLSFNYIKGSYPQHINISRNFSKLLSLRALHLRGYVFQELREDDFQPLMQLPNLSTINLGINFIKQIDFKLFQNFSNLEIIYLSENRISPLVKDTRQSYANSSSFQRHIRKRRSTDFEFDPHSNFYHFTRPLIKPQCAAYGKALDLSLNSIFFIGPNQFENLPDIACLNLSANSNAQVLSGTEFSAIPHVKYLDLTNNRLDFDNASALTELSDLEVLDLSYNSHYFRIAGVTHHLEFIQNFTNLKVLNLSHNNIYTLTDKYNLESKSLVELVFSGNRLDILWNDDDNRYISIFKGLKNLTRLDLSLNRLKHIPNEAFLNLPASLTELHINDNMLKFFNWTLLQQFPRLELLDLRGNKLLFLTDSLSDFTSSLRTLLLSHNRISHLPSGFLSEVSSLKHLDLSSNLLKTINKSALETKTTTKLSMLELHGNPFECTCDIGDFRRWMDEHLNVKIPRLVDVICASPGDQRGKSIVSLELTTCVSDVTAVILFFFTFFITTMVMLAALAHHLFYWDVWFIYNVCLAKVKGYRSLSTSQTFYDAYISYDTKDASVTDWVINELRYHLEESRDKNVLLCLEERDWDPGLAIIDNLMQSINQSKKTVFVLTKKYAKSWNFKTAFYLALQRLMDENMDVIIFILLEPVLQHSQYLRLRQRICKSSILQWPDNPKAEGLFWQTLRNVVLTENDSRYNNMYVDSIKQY
Experimental: Cryopreserved human PBMCs from healthy donors were thawed and resuspended in RPMI-1640 media with L-glutamine (Corning) supplemented with 10% Fetal Bovine Serum (Hyclone) and 1X Penicillin-Streptomycin (Corning). After counting, the cell density was adjusted to 2 million cells/ml and incubated for 1 hour at 37° C., 5% CO2 for recovery. Following the recovery, the cells were plated by adding 50p per well (100,000 cells) to 384-well cell culture plates (Greiner) containing 250nl of test antagonists in 100% DMSO per well, in a 10 points dose response in quadruplicates. PBMCs were incubated in the presence of antagonists for one hour at 37° C., 5% CO2 before being stimulated with TLR8 agonist. Compound A (Gilead Sciences, U.S. Pat. No. 10,285,990) was used as the TLR8 agonist at a final concentration of 800 nM. PBMCs were incubated in the presence of antagonist and the TLR8 agonist for an additional 6 hours at 37° C., […]. At the end of the incubation, the cell culture plates were centrifuged at 500 g for 5 min, and the cell culture supernatant was collected. The level of cytokines (TNFa and IL12p40) in the supernatant was measured by electrochemiluminescence immunoassays (Mesoscale Discovery) following manufacturer's recommended protocols. The level of cytokine measured was plotted against the antagonist concentration and fitted to a sigmoidal function to determine the EC50, which are shown below in Table 11.

[3] = target: T3, TLR9 (Homo sapiens, UniProt Q9NR96); test: Human PBMC cell-based assay, TLR9 agonist ODN-2216 stimulation, cytokine (IL-6 and IFNα) readout; settings: human PBMCs, read-out: TLR-9 EC50
T3 construct: lymphocytes, monocytes and dendritic cells that express TLR7, TLR8 and TLR9; endogenous in cells; host or cells: human PBMCs from healthy donors
T3 sequence (Q9NR96 26-1032): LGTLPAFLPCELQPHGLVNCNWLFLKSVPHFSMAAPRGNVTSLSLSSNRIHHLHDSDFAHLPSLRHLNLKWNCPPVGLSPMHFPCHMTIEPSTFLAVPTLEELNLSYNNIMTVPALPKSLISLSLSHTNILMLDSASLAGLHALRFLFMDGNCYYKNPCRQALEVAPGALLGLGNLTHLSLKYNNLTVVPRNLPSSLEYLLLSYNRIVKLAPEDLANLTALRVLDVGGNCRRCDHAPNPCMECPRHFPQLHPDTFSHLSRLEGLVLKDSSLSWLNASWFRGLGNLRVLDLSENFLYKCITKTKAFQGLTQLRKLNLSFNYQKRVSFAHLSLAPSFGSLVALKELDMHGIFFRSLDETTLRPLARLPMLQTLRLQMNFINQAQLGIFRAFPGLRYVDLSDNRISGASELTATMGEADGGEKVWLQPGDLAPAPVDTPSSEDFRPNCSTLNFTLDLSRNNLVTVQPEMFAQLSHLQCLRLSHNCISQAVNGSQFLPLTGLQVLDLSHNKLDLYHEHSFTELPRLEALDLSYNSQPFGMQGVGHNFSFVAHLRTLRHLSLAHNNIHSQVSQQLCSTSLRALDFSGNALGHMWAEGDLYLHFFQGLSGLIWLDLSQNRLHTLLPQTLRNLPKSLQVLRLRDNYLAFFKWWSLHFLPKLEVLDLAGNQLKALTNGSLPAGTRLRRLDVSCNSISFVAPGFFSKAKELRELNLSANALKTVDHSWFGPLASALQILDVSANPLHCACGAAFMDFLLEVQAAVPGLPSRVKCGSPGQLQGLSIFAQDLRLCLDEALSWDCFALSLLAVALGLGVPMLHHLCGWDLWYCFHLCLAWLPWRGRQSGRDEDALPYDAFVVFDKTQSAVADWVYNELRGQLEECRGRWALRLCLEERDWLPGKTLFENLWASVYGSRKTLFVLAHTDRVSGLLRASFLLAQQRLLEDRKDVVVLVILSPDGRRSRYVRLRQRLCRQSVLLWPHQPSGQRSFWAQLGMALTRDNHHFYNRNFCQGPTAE
Method in brief: as §1

[4] = target: cloned hERG potassium channel encoded by the KCNH2 gene (Homo sapiens, UniProt Q12809); test: hERG FASTPatch assay (QPatch patch clamp, HEK293T cells); format: cell-based; settings: HEK293T cells, 1, 3, 10 and 30 uM, room temperature; Table 27
Sequence of cloned hERG potassium channel encoded by the KCNH2 gene (Q12809 whole entry): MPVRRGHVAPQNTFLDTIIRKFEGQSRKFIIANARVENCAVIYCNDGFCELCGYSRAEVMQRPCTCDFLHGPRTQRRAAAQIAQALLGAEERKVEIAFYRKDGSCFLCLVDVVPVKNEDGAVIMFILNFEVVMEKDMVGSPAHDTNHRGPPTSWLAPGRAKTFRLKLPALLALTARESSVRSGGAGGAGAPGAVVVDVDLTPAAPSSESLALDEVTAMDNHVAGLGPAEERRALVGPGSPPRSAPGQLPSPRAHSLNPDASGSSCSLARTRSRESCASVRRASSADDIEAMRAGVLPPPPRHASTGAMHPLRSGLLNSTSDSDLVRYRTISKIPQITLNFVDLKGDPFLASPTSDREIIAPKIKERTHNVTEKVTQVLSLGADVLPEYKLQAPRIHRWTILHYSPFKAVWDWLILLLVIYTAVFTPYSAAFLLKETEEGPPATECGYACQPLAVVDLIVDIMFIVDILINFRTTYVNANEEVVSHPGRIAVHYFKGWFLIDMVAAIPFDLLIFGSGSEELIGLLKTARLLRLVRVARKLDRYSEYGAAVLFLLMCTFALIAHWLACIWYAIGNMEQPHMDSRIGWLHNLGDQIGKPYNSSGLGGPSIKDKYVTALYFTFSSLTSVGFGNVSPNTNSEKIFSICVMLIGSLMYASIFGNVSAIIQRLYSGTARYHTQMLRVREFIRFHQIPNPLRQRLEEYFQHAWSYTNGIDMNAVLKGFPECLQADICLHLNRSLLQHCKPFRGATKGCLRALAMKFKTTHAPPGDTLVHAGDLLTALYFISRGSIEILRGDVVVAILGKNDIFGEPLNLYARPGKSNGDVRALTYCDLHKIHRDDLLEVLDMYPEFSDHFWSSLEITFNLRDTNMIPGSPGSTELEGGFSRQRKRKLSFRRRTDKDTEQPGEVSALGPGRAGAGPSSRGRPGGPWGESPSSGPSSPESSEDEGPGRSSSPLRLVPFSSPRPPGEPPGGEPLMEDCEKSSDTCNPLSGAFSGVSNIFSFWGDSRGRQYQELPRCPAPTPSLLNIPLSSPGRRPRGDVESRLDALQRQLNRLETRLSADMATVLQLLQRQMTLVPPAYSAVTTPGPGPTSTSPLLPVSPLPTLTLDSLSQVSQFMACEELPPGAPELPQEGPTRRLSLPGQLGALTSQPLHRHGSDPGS
Experimental: The FASTPatch® Assay (Charles River) was used to examine the in vitro effects of the compounds provided herein on the cloned hERG potassium channel encoded by the KCNH2 gene and stably expressed in HEK293T cells. Vehicle, test and control article formulations were prepared by diluting DMSO stock solutions in HB-PS (HEPES-buffered physiological saline solution) and were delivered to cells via the QPatch robot pipetting system to a final concentration of 0.3% DMSO. Test compound final concentrations of 1, 3, 10 and 30 uM were applied to cells (n >3, where n=the number of cells/concentration) in ascending order in at least three minute intervals separated by solution exchange. The positive control, 50 nM cisparide, was applied in the same manner. Cell membrane currents were recorded at room temperature with up to 48 parallel patch clamp amplifiers in the QPatch HT® or QPatch HTX® system, and only cells with validated whole-cell recordings (seal resistance >200 MQ and leak current <25% channel current) were used. Onset and block of hERG current was measured using a stimulus voltage pattern consisting of a 500 ms prepulse to −40 mV, a 2-second activating pulse to +40 mV, followed by a 2-second test pulse to −40 mV. The pulse pattern was repeated continuously at 10-second intervals from a holding potential of −80 mV. % Block={1-1/[1+([Test]/IC50)^N]}*100% Where [Test] is the concentration of test article, IC50 is the concentration of the test article producing half-maximal inhibition, N is the Hill coefficient and % Block is the percentage of current inhibited at each concentration of the test article. Nonlinear least squares fits will be solved with the Solver add-in for Excel 2000 or later (Microsoft, Redmon, WA). TurboSol analysis for test compound solubility was performed for each concentration tested using a Nephelostar reader measuring light scatter from a 635 nm laser source. Based on validation experiments, light scatter above four times the background level was considered an indication of the presence of particles in suspension.

[5] = GS-986 400 nM, 6 hours, Table 26
[6] = ODN-2216 3 μM, 6 hours, Table 26

CCc1c(-c2cc(C)c3ncnn3c2)[nH]c2cc(-c3ccc(N4CCN(CCO)CC4)nc3)ccc12 [Example 173]
EC50 [1, 5]: 0.11 nM | EC50 [2]: 5.16 nM

Cc1cc(-c2[nH]c3cc(-c4ccnc(N5CCNCC5)c4)ccc3c2C)cc(C)n1 [Example 64]
EC50 [1, 5]: 315 nM | EC50 [3, 6]: 136 nM | IC50 [4]: 20300 nM

Cc1cc(-c2[nH]c3ccc(-c4ccc(N5CCC(C)(N)CC5)nc4)cc3c2C(C)C)cc(C)n1 [Example D, reference compound]
EC50 ([1]; Table 27 comparison): 12 nM | EC50 ([3]; Table 27 comparison): 249 nM | IC50 [4]: 7800 nM

Cc1cc(-c2[nH]c3ccc(-c4ccnc(N5CCNCC5)c4)cc3c2C(C)C)cc(C)n1 [Example B, reference compound]
EC50 ([1]; Table 27 comparison): 7.8 nM | EC50 ([3]; Table 27 comparison): 285 nM | IC50 [4]: 2100 nM

Cc1c(-c2cc(C)c3ncnn3c2)[nH]c2cc(-c3nnc(C4CCNCC4)o3)ccc12 [Example 191]
EC50 [1, 5]: 49.1 nM | EC50 [2]: 269 nM

Cc1cc(-c2[nH]c3cc(-c4ccc(N5CCC(C)(N)CC5)nc4)ccc3c2C)cc(C)n1 [Example 23]
EC50 [1, 5]: 16.8 nM | EC50 [3, 6]: 29 nM | IC50 [4]: 18500 nM

Cc1c(-c2cc(C)c3ncnn3c2)[nH]c2cc(-c3nnc(N4CCNCC4)o3)ccc12 [Example 192]
EC50 [1, 5]: 65.6 nM | EC50 [2]: 403 nM

Cc1cc(-c2[nH]c3ccc(C4CCCNC4)cc3c2C(C)C)cc(C)n1 (centres unmarked) [Example C, reference compound]
EC50 ([1]; Table 27 comparison): 2.3 nM | EC50 ([3]; Table 27 comparison): 583 nM | IC50 [4]: 11000 nM

Cc1cc(-c2[nH]c3cc(-c4ccc(N5CCNCC5)nc4)ccc3c2C2CC2)cn2ncnc12 [Example 175]
EC50 [1, 5]: 0.15 nM | EC50 [2]: 8.15 nM
